Experimental data taken from patent publication US5192664A, “Parathyroid hypertensive factor, antibodies and uses thereof” (Pang; Peter K. T., priority 1990, dated 1993).

Tested on: Blood Pressure in SHR
Assay: Feeding of nifedipine and dietary calcium to SHR rats for 8 weeks, mean blood pressure
Format: in vivo, rat
Conditions: for Blood Pressure in SHR: nifedipine 0 mg/kg food, 8 weeks feeding
Description: Male rats of the SHR strain, obtained from Harlan Sprague-Dawley, 12 weeks old, were divided into groups of 12 or 24, and were fed prepared diets containing 0.2%, 0.4% and 0.8% elemental calcium, respectively. […] Distilled water was available ad lib. Feeding was continued for 8 weeks and the mean blood pressure of each animal was determined at the end of that time.

[Ca] [Calcium]
decrease in blood pressure (4 times the amount of ordinary dietary calcium, no nifedipine): measurable, but small
Blood Pressure in SHR (dietary calcium 0.4%): 164 ± 6 mm Hg
Blood Pressure in SHR (dietary calcium 0.8%): 169 ± 6 mm Hg
